From patent US10080739B2, “Aryl imidazoles and their use as anti-cancer agents” (Aptose Biosciences Inc., priority 2003, dated 2018)

Tests used:
[1] = tested on: human colon carcinoma cells (HT-29); assay: XTT cell proliferation assay, HT-29 cells, 48 h; assay type: cell-based; conditions: read-out: % Survival
Protocol: Selected compounds of Formula I were tested for anti-cancer activity in vitro using a human colon carcinoma cells (HT-29) and human non-small cell lung cancer cells (H460). The cells were maintained in α-MEM medium (Wisent, St-Bruno, Qc) supplemented with 10% FBS, and grown at 37° C. in an atmosphere of 5% CO2. Cells were transferred onto 150 mm tissue culture plates and grown until sub-confluency (70-80%) prior to their use.
The anti-cancer activity in vitro was evaluated by a cell proliferation assay based on the ability of live cells to reduce the tetrazolium salt XTT to orange coloured compounds of formazan (XTT cell proliferation kit II, Roche Applied Science, Montreal, QC).
Approximately 4×10^3 colon cancer cells (HT-29) or 2×10^3 non-small cell lung cancer cells (NCI-H460) in 100 μl of complete culture medium were plated onto 96-well microtiter plates and incubated overnight at 37° C. The medium was then removed by inverting the plate and patting on a sterile absorbent cloth. Fifty μl of medium containing the test compound at either 25 or 100 μM, were added to the wells containing cells and incubated at 37° C. in an atmosphere of 5% CO2 for 48 h. Following incubation, 25 μl of an XTT reaction mixture (XTT at a final concentration of 0.3 mg/ml) were added to each well and the plates were incubated for a further 4 h. The absorbance of each sample was then determined at a wavelength of 490 nm/650 nm as reference. Each compound was tested in duplicate and the results are reported as averages.

leukemia cell lines = assay: NCI/DTP screen, leukemia cell lines; assay type: cell-based, human
Protocol: The twenty-three compounds of Formula I shown below were evaluated for their antiproliferative effects in a panel of 60 human cancer cell lines as part of the in vitro anticancer screening services provided by the DTP (Developmental Therapeutics Program) of the US National Cancer Institute (NCI) U.S. National Cancer Institute (NCI) of the National Institutes of Health (NIH) in […], Md.
The NCI conducts a standard 48/72 hour 60 cell line assay and an in vitro time course assay as described in Alley et al. (Cancer Res (1988) 48:589). In the standard 60 cell line assay, a minimum of 5 concentrations of the test compound are tested at 10-fold dilutions against 60 cell lines and cell growth is assayed at 48 and 72 hours using a sulphorhodamine B assay. For the time course analysis, tumour cells are treated with the test compound at various time points, then washed and grown in medium free of the test compound until the end of the experiment at 144 hrs. This assay employs 20% FBS to better approximate the minimum c×t (concentrations and times) test compound exposure conditions that are required to achieve activity in vivo. Cell growth is quantified by an MTT assay (similar to the XTT assay described above) and the concentration of the test compound required for growth inhibition is determined. […]

ALK = target: T1, ALK (Homo sapiens, UniProt Q9UM73); assay: kinase profiler, ALK; assay type: biochemical; conditions: 10 μM compound, 100 μM ATP, mean of % control
T1 construct: purchased Upstate Biotechnologies (kinase profiler service)
Protocol: (§1) Compound 45 was tested for its ability to function as a kinase inhibitor using the kinase profiler service from Upstate Biotechnologies. The general protocol employed is as follows: recombinant kinases were incubated with specific substrates, 10 mM MgAcetate, and [γ-^33P-ATP]. The reaction was initiated by the addition of MgATP mix. After incubation at room temperature for 40 minutes, the reaction was stopped by the addition of 5 μl of a 3% phosphoric acid solution. 10 μl of the reaction was then spotted on to a P30 filtermat and washed 3 times for 5 min. in 75 mM phosphoric acid and once in methanol prior to drying and scintillation counting. Each reaction was performed in duplicate with 100 μM ATP −/+10 μM compound 45. Results are presented in Table IV and are expressed as the mean of % control (no compound). PI 3-kinase-γ (PI3K-γ) activity was determined with the PIProfiler™ assay, which measures the binding of the GRP1 pleckstrin homology (PH) domain to PIP3, the product of PI3K acting on its physiological substrate PIP2.

ASK1 = target: T2, ASK1 (Homo sapiens, UniProt Q99683); assay: kinase profiler, ASK1; assay type: biochemical; conditions: 10 μM compound, 100 μM ATP, mean of % control
T2 construct: purchased Upstate Biotechnologies (kinase profiler service)
Protocol: as §1

Aurora-A = target: T3, Aurora-A (Homo sapiens, UniProt O14965); assay: kinase profiler, Aurora-A; assay type: biochemical; conditions: 10 μM compound, 100 μM ATP, mean of % control
T3 construct: purchased Upstate Biotechnologies (kinase profiler service)
Protocol: as §1

CaMKII = assay: kinase profiler, CaMKII; assay type: biochemical, human; conditions: 10 μM compound, 100 μM ATP, mean of % control
Protocol: as §1

CaMKIV = target: T4, CaMKIV (Homo sapiens, UniProt Q16566); assay: kinase profiler, CaMKIV; assay type: biochemical; conditions: 10 μM compound, 100 μM ATP, mean of % control
T4 construct: purchased Upstate Biotechnologies (kinase profiler service)
Protocol: as §1

CDK7/cyclinH/MAT1 = target: T5, CDK7/cyclinH/MAT1 (Homo sapiens, UniProt P50613); assay: kinase profiler, CDK7/cyclinH/MAT1; assay type: biochemical; conditions: 10 μM compound, 100 μM ATP, mean of % control
T5 construct: purchased Upstate Biotechnologies (kinase profiler service)
Protocol: as §1

CK2 = target: T6, CK2 (Homo sapiens, UniProt P68400); assay: kinase profiler, CK2; assay type: biochemical; conditions: 10 μM compound, 100 μM ATP, mean of % control
T6 construct: purchased Upstate Biotechnologies (kinase profiler service)
Protocol: as §1

Fms = target: T7, Fms (Homo sapiens, UniProt P07333); assay: kinase profiler, Fms; assay type: biochemical; conditions: 10 μM compound, 100 μM ATP, mean of % control
T7 construct: purchased Upstate Biotechnologies (kinase profiler service)
Protocol: as §1

MINK = target: T8, MINK (Homo sapiens, UniProt Q8N4C8); assay: kinase profiler, MINK; assay type: biochemical; conditions: 10 μM compound, 100 μM ATP, mean of % control
T8 construct: purchased Upstate Biotechnologies (kinase profiler service)
Protocol: as §1

MKK6 = target: T9, MKK6 (Homo sapiens, UniProt P52564); assay: kinase profiler, MKK6; assay type: biochemical; conditions: 10 μM compound, 100 μM ATP, mean of % control
T9 construct: purchased Upstate Biotechnologies (kinase profiler service)
Protocol: as §1

PI3K-α = target: T10, PI3K-α (Homo sapiens, UniProt P42336); assay: kinase profiler, PI3K-α; assay type: biochemical; conditions: 10 μM compound, mean of % control
T10 construct: purchased Upstate Biotechnologies (kinase profiler service)

Pim-1 = target: T11, Pim-1 (Homo sapiens, UniProt P11309); assay: kinase profiler, Pim-1; assay type: biochemical; conditions: 10 μM compound, 100 μM ATP, mean of % control
T11 construct: purchased Upstate Biotechnologies (kinase profiler service)
Protocol: as §1

PKCζ = target: T12, PKCζ (Homo sapiens, UniProt Q05513); assay: kinase profiler, PKCζ; assay type: biochemical; conditions: 10 μM compound, 100 μM ATP, mean of % control
T12 construct: purchased Upstate Biotechnologies (kinase profiler service)
Protocol: as §1

ROCK-II = target: T13, ROCK-II (Homo sapiens, UniProt O75116); assay: kinase profiler, ROCK-II; assay type: biochemical; conditions: 10 μM compound, 100 μM ATP, mean of % control
T13 construct: purchased Upstate Biotechnologies (kinase profiler service)
Protocol: as §1

SAPK4 = target: T14, SAPK4 (Homo sapiens, UniProt O15264); assay: kinase profiler, SAPK4; assay type: biochemical; conditions: 10 μM compound, 100 μM ATP, mean of % control
T14 construct: purchased Upstate Biotechnologies (kinase profiler service)
Protocol: as §1

Tie2 = target: T15, Tie2 (Homo sapiens, UniProt Q02763); assay: kinase profiler, Tie2; assay type: biochemical; conditions: 10 μM compound, 100 μM ATP, mean of % control
T15 construct: purchased Upstate Biotechnologies (kinase profiler service)
Protocol: as §1

TrkA = target: T16, TrkA (Homo sapiens, UniProt P04629); assay: kinase profiler, TrkA; assay type: biochemical; conditions: 10 μM compound, 100 μM ATP, mean of % control
T16 construct: purchased Upstate Biotechnologies (kinase profiler service)
Protocol: as §1

T6 sequence (P68400 whole entry): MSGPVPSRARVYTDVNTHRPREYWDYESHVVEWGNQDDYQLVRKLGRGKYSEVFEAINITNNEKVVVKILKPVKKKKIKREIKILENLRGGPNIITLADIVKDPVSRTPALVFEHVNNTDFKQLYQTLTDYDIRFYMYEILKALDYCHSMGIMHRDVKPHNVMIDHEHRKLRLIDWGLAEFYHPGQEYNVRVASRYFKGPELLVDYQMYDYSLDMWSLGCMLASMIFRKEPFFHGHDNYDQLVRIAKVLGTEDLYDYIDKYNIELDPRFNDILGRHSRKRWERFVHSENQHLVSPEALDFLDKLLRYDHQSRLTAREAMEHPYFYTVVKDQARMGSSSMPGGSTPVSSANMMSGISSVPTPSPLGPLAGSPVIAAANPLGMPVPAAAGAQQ
T6 sequence (P67870 whole entry partner): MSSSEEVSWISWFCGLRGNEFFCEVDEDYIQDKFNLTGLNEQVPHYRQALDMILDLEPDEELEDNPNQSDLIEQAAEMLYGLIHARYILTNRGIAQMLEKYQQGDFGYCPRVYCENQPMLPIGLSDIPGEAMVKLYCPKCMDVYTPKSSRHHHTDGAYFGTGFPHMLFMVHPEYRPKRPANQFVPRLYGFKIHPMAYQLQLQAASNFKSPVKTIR
T12 sequence (Q05513 whole entry): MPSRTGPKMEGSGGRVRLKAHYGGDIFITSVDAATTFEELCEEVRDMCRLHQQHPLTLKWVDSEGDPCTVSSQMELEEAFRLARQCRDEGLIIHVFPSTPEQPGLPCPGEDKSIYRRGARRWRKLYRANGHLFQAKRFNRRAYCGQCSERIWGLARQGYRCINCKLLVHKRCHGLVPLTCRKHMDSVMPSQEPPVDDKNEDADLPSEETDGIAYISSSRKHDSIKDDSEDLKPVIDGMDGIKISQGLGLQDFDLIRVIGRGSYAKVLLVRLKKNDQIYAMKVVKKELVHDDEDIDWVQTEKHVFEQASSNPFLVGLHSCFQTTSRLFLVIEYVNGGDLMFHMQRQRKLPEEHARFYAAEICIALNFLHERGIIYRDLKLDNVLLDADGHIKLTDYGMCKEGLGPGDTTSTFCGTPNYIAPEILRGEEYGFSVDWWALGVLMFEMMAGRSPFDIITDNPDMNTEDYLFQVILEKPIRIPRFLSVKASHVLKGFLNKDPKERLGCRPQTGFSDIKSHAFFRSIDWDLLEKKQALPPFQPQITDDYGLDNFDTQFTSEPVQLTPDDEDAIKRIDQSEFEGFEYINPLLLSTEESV
T8 sequence (Q8N4C8 whole entry): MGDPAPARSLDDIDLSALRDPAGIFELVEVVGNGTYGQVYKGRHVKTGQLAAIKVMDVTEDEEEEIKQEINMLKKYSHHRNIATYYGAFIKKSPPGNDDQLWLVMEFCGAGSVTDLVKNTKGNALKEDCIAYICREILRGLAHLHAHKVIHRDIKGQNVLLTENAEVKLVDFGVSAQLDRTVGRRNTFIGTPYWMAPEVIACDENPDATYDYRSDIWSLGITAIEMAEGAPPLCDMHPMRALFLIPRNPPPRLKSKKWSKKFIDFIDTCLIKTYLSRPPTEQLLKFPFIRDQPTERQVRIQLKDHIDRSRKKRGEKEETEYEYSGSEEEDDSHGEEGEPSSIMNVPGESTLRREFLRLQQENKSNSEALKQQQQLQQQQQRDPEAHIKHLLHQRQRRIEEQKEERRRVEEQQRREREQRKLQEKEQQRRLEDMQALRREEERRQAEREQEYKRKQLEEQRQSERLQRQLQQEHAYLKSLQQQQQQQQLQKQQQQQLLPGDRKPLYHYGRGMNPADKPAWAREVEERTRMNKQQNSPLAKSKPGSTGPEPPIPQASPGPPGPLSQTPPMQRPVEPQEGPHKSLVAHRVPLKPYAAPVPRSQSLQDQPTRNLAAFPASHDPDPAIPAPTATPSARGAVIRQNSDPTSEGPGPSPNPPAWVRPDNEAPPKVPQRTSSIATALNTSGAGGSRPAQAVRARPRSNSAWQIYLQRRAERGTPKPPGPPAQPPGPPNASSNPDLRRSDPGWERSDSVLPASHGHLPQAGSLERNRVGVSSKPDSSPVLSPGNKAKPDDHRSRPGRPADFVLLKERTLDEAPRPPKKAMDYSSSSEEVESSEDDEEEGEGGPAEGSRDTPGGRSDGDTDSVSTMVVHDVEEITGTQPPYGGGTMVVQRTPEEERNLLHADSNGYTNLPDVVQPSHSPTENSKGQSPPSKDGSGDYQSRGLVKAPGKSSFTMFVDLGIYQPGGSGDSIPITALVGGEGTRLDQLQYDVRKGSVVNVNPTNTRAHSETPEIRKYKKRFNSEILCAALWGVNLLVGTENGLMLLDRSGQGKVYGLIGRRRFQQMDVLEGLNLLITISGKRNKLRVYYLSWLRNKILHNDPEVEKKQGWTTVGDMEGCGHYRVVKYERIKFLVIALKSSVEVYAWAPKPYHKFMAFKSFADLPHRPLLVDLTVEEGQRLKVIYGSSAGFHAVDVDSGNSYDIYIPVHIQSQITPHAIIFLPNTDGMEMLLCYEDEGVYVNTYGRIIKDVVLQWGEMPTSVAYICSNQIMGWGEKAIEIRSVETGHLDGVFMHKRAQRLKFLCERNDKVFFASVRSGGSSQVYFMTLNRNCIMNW
T10 sequence (P42336 whole entry): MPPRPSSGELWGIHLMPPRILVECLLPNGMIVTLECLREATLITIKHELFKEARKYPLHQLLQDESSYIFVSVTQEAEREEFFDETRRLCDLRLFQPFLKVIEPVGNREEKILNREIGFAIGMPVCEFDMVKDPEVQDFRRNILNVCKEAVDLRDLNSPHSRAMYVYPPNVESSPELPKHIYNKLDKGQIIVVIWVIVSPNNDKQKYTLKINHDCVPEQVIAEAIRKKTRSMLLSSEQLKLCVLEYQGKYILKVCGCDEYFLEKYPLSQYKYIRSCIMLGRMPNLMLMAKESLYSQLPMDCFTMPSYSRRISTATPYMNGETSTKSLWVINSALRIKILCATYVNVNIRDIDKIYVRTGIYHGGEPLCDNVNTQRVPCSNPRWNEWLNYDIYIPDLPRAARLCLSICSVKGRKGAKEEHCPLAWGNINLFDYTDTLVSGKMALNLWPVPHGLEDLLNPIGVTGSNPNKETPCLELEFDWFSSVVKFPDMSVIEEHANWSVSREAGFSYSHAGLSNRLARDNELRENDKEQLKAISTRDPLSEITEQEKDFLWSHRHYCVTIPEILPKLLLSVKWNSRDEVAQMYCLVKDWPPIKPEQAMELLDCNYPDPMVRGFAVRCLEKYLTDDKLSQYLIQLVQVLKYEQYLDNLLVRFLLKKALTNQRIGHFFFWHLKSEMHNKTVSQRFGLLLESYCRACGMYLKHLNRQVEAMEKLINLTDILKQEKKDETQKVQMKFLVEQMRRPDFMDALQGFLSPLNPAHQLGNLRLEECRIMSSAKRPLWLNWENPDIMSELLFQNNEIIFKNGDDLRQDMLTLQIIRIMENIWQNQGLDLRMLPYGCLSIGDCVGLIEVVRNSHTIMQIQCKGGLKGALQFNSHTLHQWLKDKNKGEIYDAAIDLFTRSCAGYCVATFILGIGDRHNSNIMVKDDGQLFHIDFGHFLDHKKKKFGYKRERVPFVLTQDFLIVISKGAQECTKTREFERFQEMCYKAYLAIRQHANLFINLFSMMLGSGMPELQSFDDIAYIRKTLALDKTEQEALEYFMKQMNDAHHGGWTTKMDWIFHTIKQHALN
T10 sequence (P27986 whole entry partner): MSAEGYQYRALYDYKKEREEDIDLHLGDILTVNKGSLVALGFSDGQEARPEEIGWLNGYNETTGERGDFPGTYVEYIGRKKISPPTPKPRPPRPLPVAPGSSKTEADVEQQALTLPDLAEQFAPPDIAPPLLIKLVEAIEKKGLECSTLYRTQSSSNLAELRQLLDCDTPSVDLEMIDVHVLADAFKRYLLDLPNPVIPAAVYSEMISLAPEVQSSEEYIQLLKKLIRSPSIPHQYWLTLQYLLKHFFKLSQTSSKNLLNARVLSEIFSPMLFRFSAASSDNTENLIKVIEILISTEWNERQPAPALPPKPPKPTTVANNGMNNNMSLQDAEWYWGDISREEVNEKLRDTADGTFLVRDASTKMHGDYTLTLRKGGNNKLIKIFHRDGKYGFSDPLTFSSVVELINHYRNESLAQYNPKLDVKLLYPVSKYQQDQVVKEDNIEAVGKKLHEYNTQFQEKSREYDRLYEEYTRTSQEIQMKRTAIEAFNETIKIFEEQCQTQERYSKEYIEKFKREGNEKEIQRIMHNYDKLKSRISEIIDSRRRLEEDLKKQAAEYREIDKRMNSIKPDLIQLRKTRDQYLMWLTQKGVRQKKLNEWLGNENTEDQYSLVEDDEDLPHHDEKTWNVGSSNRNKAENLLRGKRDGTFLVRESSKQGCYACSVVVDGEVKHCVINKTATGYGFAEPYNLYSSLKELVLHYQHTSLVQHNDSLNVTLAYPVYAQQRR
T3 sequence (O14965 whole entry): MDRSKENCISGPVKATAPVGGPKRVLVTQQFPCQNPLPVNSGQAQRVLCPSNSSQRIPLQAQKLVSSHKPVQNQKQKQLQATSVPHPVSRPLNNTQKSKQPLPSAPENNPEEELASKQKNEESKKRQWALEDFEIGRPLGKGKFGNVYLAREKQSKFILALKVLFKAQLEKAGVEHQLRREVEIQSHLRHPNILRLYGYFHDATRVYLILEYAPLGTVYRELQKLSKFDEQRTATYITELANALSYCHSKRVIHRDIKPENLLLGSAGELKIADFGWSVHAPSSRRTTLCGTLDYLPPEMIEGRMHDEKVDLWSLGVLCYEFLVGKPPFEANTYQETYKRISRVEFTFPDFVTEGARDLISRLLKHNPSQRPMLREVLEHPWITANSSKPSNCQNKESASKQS
T11 sequence (P11309 whole entry): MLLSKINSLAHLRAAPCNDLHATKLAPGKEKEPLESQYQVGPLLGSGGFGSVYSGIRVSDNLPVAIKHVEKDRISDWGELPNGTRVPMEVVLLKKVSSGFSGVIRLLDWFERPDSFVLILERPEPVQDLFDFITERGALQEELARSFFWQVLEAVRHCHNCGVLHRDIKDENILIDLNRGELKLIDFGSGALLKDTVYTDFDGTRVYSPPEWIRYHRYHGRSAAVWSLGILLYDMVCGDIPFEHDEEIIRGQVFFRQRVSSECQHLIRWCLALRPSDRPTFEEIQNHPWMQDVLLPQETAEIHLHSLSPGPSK

Brc1ccc2[nH]cc(-c3nc4c5ccccc5c5ccccc5c4[nH]3)c2c1 [Compound 45]
viability at 25 µM ([1]; 25 μM compound): 88.9%
viability at 100 µM ([1]; 100 μM compound): 35%
GI50 (leukemia cell lines; Homo sapiens, leukemia cell lines (FIG. 10B)): 3.4 µM
TGI (total growth inhibition) (leukemia cell lines; leukemia cell lines, 100 μM the highest concentration used (FIG. 10C)): > 100 µM
activity at 10 µM (ALK): 60%
activity at 10 µM (ASK1): 99%
activity at 10 µM (Aurora-A): 54%
% activity (CaMKII): 32%
activity at 10 µM (CaMKIV): 98%
activity at 10 µM (CDK7/cyclinH/MAT1): 95%
activity at 10 µM (CK2): 91%
activity at 10 µM (Fms): 135%
activity at 10 µM (MINK): 91%
activity at 10 µM (MKK6): 86%
activity at 10 µM (PI3K-α): 30%
activity at 10 µM (Pim-1): 70%
activity at 10 µM (PKCζ): 96%
activity at 10 µM (ROCK-II): 86%
activity at 10 µM (SAPK4): 77%
activity at 10 µM (Tie2): 109%
activity at 10 µM (TrkA): 56%
